Source: ChEMBL document CHEMBL1800051 (J Med Chem, 2010)

Key:
RAW264.7 [1] = test: Inhibition of iNOS in mouse RAW264.7 cells assessed as inhibition of LPS-induced nitrite production at 50 uM treated 30 mins before LPS challenge measured after 24 hrs by Griess method; type: functional
[2] = Cytotoxicity against mouse Hepa-1c1c7 cells at 50 uM after 48 hrs by crystal violet staining; type: cell-based; settings: hepa-1c1c7, 48 h
[3] = target: NAD(P)H dehydrogenase [quinone] 1 (Mus musculus) (UniProt Q64669); settings: Hepa-1c1c7
Chain of NAD(P)H dehydrogenase [quinone] 1 (Mus musculus) (Q64669 whole entry): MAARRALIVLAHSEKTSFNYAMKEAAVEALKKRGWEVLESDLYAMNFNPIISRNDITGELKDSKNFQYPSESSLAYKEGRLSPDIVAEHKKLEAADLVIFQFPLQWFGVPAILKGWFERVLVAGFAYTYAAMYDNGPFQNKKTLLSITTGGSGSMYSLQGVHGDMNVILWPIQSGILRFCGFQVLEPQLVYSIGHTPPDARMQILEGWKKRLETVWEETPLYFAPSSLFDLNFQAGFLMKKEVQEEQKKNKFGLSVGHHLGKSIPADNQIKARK

RAW264.7 [4] = test: Inhibition of iNOS in mouse RAW264.7 cells assessed as inhibition of LPS-induced nitrite production treated 30 mins before LPS challenge measured after 24 hrs by Griess method; type: functional, cell-based
[5] = Inhibition of NF-kappaB expressed in human HEK293 cells by luciferase reporter gene based luminometric analysis; type: cell-based
cells = settings: Mus musculus, Hepa-1c1c7, 48 h
[6] = target: T1, Ribosyldihydronicotinamide dehydrogenase [quinone] (Homo sapiens, UniProt P16083); test: Inhibition of human QR2 expressed in Escherichia coli BL21 (DE3) using MTT and NMeH as substrate assessed as formazan formation
T1 sequence (P16083 whole entry): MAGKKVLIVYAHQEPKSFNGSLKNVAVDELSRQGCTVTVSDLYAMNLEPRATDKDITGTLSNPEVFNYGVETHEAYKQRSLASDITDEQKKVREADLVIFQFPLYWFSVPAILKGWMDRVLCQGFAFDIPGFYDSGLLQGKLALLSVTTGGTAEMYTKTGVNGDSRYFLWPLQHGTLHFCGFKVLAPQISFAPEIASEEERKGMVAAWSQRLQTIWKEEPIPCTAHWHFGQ

HCT-116 = test: Cytotoxicity against human HCT116 cells; type: functional, cell-based
RAW264.7 [7] = test: Inhibition of iNOS in mouse RAW264.7 cells assessed as inhibition of LPS-induced nitrite production at 100 uM treated 30 mins before LPS challenge measured after 24 hrs by Griess method; type: functional

SMILES | inhibition at 50 µM (RAW264.7 [1]) [%] | CD [3] [µM] | IC50 (RAW264.7 [4]) [µM] | IC50 [5] [µM] | other results
COc1cccc2nc3ccccc3nc12 | 2.4 | – | – | – | –
Cc1nc2cc3ccccc3cc2nc1C | 3.4 | 16.6 | – | – | Activity [2]: Toxic
Oc1c(Br)cc(Br)c2nc3ccccc3nc12 | 70.9 | 27 | 4.2 | – | –
COc1cccc2nc3cc4ccccc4cc3nc12 | – | 0.0047 | 7.2 | 2.1 | IC50 (cells): 9.58 µM
COc1ccc(Br)c2nc3ccccc3nc12 | 47.5 | 4.3 | – | – | –
Oc1cc(Br)cc2nc3ccccc3nc12 | 86.5 | – | 28.4 | 5.42 | –
COc1cc(Br)c(Br)c2nc3ccccc3nc12 | 70.9 | – | 33.7 | – | –
COc1ccc(OC)c2nc3ccccc3nc12 | 5 | – | – | – | –
COc1cc(Br)cc2nc3cc(C)c(C)cc3nc12 | 8.8 | – | – | 6.64 | –
COc1cc(Br)cc2nc3cc(Cl)c(Cl)cc3nc12 | 0 | 0.012 | – | 2.46 | –
Cc1nc2c(Br)cc(Br)c(O)c2nc1C | 81.3 | – | 45.6 | 1.93 | IC50 [6]: 2.9 µM
COc1cc2nc3ccccc3nc2cc1OC | 29.4 | – | – | – | –
COc1cc(Br)cc2nc3ccccc3nc12 | 68.6 | – | 26.5 | – | –
C[S+]([O-])CCCCN=C=S (centres undefined) | – | 0.23 | – | – | –
Brc1cc(Br)c2nc3ccccc3nc2c1 | 16.4 | – | – | – | –
COc1cc(Br)c(Br)c2nc3cc(C)c(C)cc3nc12 | 77.7 | – | 34.5 | 1.39 | –
COc1ccc2nc3ccccc3nc2c1 | 12.5 | – | – | – | –

SMILES | inhibition at 50 µM (RAW264.7 [1]) [%] | CD [3] [µM] | IC50 (RAW264.7 [4]) [µM] | IC50 [5] [µM] | other results
Cc1nc2cccc(O)c2nc1C | 0 | – | – | – | Activity [2]: Toxic
Cc1cc2nc3ccccc3nc2cc1C | 49.1 | 23 | – | 9.15 | –
CS/C(S)=N/CCCC[S+](C)[O-] (centres undefined) | – | 0.26 | – | – | –
COc1cccc2nc(C)c(C)nc12 | 0.8 | – | – | – | –
Oc1ccc(Br)c2nc3ccccc3nc12 | 84.7 | – | 31.5 | 5.19 | –
Oc1cccc2nc3cc(Cl)c(Cl)cc3nc12 | 51.2 | 1.85 | 47.2 | – | –
O=[N+]([O-])c1cc(Br)c2nc3ccccc3nc2c1 | 79.7 | – | 7.2 | 13.1 | –
c1ccc2cc3nc4ccccc4nc3cc2c1 [BENZO[B]PHENAZINE] | 98.7 | 4.39 | 5.9 | 2.48 | Activity [2]: Toxic
COc1ccc(Br)c2nc3cc(C)c(C)cc3nc12 | 51.9 | 1.83 | 48.9 | 17 | –
COc1cccc2nc3cc(C)c(C)cc3nc12 | 53.8 | 11.3 | 47 | – | –
COc1c(Br)ccc2nc3ccccc3nc12 | 44.7 | 29.4 | – | – | –
Oc1c(Br)ccc2nc3ccccc3nc12 | – | – | – | 73 | IC50 (HCT-116): 0.1 µM; inhibition at 100 µM (RAW264.7 [7]): 31.5%
COc1cccc2nc3cc(Cl)c(Cl)cc3nc12 | 14.6 | 9.42 | – | 16.2 | –
Oc1cc(Br)c(Br)c2nc3ccccc3nc12 | 79.2 | – | 17.4 | 4.74 | –
Cc1ccc2nc3ccccc3nc2c1 | 38.7 | – | – | – | –
Cc1cc(Br)cc2nc3ccccc3nc12 | 5.5 | – | – | – | –
COc1c(Br)cc(Br)c2nc3ccccc3nc12 | 24.7 | – | – | – | –
